Data as given in ChEMBL document CHEMBL1201862, “PubChem BioAssay data set” (2004).
Calls of active or inactive are those of the source.

Assays:
[1] = Luminescence Cell-Based Dose Confirmation HTS to Identify Inhibitors of Polyadenylation.; type: functional
[2] = target: T1, Replicative DNA helicase DnaB (Mycobacterium tuberculosis, UniProt P9WMR3); assay: DnaB intein splicing inhibitors, dose response, biochemical, cell-free fluorescence (AID 449749); type: functional
T1 sequence (P9WMR3 whole entry): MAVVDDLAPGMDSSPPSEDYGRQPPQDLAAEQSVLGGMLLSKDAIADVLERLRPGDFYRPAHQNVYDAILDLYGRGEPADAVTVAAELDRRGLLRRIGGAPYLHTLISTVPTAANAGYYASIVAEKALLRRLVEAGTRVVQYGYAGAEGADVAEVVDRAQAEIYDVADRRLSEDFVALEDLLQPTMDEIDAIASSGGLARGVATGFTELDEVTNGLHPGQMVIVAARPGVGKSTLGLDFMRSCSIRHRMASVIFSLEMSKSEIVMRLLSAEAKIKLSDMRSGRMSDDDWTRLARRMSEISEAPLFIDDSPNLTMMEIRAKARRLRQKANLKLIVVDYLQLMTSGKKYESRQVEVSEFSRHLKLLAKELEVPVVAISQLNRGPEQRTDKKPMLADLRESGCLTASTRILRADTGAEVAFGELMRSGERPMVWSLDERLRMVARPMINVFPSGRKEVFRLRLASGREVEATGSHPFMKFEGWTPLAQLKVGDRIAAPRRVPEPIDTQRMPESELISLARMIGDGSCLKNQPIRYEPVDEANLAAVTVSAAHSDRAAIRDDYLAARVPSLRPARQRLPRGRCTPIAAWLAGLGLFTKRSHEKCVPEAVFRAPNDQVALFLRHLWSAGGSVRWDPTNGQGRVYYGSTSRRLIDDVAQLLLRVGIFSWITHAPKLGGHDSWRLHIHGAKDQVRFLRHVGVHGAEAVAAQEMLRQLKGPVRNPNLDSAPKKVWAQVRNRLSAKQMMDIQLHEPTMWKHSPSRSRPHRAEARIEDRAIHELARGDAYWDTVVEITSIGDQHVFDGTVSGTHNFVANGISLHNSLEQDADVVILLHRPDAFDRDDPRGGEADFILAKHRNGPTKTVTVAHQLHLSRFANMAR

Protein RecA = target: T2, Protein RecA (Mycobacterium tuberculosis, UniProt P9WHJ3); assay: Fluorescence Cell-Free Homogeneous Dose Retest to Identify Inhibitors of RecA-Intein Splicing Activity. [Related pubchem assays (depositor defined):AID2097, AID2223, AID489010, AID492950]; type: functional
T2 sequence (P9WHJ3 whole entry): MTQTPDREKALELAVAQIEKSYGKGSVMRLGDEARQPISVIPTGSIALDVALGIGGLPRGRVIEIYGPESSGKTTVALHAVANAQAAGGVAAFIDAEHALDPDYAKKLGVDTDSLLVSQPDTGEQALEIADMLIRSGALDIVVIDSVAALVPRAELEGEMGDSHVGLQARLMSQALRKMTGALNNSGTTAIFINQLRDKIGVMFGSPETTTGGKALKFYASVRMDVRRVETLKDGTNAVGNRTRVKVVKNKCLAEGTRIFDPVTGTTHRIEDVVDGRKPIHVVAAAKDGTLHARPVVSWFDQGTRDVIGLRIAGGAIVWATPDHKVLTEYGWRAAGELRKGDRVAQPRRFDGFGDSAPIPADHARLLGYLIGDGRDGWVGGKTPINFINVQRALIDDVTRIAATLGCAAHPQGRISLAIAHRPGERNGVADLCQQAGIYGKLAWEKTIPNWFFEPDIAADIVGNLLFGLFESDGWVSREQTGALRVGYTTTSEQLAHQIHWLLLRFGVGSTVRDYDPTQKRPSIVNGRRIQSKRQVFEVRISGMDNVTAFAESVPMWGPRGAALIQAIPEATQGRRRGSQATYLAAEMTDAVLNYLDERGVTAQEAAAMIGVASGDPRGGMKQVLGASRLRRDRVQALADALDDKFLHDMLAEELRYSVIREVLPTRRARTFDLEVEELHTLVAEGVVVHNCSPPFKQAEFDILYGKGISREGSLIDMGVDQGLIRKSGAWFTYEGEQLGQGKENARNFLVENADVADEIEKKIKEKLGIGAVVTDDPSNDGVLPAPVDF

[3] = target: T3, Alkaline phosphatase, tissue-nonspecific isozyme (Homo sapiens, UniProt P05186)
T3 sequence (P05186 whole entry): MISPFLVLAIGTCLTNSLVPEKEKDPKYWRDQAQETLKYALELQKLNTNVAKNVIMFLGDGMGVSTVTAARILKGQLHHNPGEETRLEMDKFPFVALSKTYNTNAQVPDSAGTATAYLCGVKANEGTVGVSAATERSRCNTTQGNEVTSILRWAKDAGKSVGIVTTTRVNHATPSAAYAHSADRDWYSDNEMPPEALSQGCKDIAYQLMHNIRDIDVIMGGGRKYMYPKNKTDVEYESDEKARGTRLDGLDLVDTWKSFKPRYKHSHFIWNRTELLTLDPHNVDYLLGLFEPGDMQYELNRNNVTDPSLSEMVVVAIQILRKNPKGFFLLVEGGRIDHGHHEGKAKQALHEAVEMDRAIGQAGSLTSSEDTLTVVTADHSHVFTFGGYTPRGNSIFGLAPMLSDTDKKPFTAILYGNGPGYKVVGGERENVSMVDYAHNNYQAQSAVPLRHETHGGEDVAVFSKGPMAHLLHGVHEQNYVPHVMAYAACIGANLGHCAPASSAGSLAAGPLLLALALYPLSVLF

[4] = M. tuberculosis H37Rv growth inhibitors, H37Rv strain (AID 1626); type: functional
[5] = cytotoxicity toward DRD oncogenic fibroblasts, dose response, cell-based, non-viral oncogenic, luminescence (AID 1934); type: functional; settings: Homo sapiens
BJ [6] = assay: cytotoxicity toward BJ-TERT-LT-ST fibroblasts, dose response, cell-based, RAS-independent, luminescence (AID 1935); type: functional; settings: Homo sapiens;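 note: BJ fibroblasts immortalized with TERT plus LT and ST oncogenes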
BJ [7] = assay: cytotoxicity toward BJ-TERT fibroblasts, dose response, cell-based, RAS-independent, luminescence (AID 1933); type: functional; settings: Homo sapiens
[8] = Luminescence Cell-Based Dose Response HTS to Identify Inhibitors of 5'UTR Stem-Loop Driven Prion Protein mRNA Translation in H4 Neuroglioblastoma Cells. [Related pubchem assays: 1827 (Project Summary), 1813 (Primary HTS)]; type: functional
[9] = Luminescence-based dose response cell-based high throughput screening assay for cytotoxic compounds using the IEC-6 intestinal epithelial cell line. [Related pubchem assays: 1858 (Summary AID.), 1825 (Counterscreen.), 1907 (Confirmation screen.)]; type: functional
[10] = inhibitors of SNCA 5'UTR-driven reporter translation, confirmation, H4 neuroglioma cells, luminescence (AID 1988); type: functional, cell-based
[11] = inhibitors of firefly luciferase expression or activity, dose response, H4 neuroglioma cells, luminescence (AID 1990); type: functional, cell-based
Paired box protein Pax-8 = Paired box protein Pax-8 (Homo sapiens, UniProt Q06710); assay: inhibitors of PAX8-driven TPO luciferase reporter, dose response, RMG-I cells, cherry-pick (AID 687027); type: functional, cell-based;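 note: luciferase reporter driven by Pax8 target thyroperoxidase promoter measured by SteadyGlo luminescence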
BJ [12] = assay: cytotoxicity toward Ras-transformed BJeLR fibroblasts, dose response, cell-based, alamar blue fluorescence, cherrypicked samples (AID 2631); type: functional; settings: Homo sapiens;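 note: confirmatory dose-response assay in RAS-dependent BJ fibroblasts engineered with TERT, LT and ST, with cytotoxicity read by fluorescence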
BJ [13] = assay: cells; type: functional, cell-based; settings: Homo sapiens
[14] = cytotoxicity in HEK-293T cells, dose response, cytotoxicity control for TCR NF-kB inhibitor project, luminescence, T-cell screen hits (AID 489026); type: functional, cell-based;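 note: cells exposed to compound about 14 hours before the viability readout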
[15] = target: Peroxisome proliferator-activated receptor gamma/Nuclear receptor coactivator 2 (Homo sapiens, UniProt P37231); type: functional;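 note: agonist potency for raising coactivator recruitment to the receptor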
[16] = target: Peroxisome proliferator-activated receptor gamma/Nuclear receptor coactivator 1 (Homo sapiens, UniProt P37231); type: functional;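 note: agonist potency as compounds enhance coactivator SRC-1 recruitment to PPARgamma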
[17] = target: Peroxisome proliferator-activated receptor gamma/Nuclear receptor coactivator 3 (Homo sapiens, UniProt P37231); type: functional;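 note: agonist potency for raising coactivator recruitment to the receptor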
[18] = inhibitors of clade B AD8 Env fusion, dose response, cell-based, cherry-pick (AID 652062); type: functional;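 note: luciferase signal from cell-cell fusion driven by HIV-1 clade B AD8 Env; potency is for inhibitors of fusion seen as a drop in luminescence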
HEK293 [19] = assay: cells; type: functional, cell-based; settings: Homo sapiens
Galanin receptor type 2 = target: T4, Galanin receptor type 2 (Homo sapiens, UniProt O43603); assay: Dose Response cell-based high-throughput screening assay to identify antagonists of galanin receptor 2 (GALR2). [Related pubchem assays: 828, 866 ]; type: functional
T4 sequence (O43603 whole entry): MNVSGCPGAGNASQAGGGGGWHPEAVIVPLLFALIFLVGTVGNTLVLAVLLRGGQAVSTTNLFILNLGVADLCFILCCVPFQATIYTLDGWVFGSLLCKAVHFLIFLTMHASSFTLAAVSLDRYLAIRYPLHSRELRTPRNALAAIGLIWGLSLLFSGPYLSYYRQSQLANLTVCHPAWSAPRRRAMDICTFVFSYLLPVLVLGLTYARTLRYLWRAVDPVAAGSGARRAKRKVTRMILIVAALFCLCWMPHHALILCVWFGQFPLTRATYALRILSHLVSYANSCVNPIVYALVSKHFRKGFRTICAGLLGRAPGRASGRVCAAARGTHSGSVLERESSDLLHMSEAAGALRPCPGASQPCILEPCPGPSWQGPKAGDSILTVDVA

HEK293 [20] = assay: NOD2 signaling inhibitors in MDP-stimulated cells, cell-based, uHTS, luminescence (AID 2001); type: functional; settings: Homo sapiens
HEK293 [21] = assay: cells; type: functional, cell-based; settings: Homo sapiens; remark: listed apart in the source
[22] = target: Nucleotide-binding oligomerization domain-containing protein 2 (Homo sapiens, UniProt Q9HC29); assay: NOD2 signaling inhibitors, cell-based, luminescence, uHTS, HEK293 (AID 1566); type: functional
HEK293 [23] = assay: NOD1 signaling inhibitors, primary screen, cell-based, luminescence, uHTS (AID 1578); type: functional; settings: Homo sapiens
INS1 = assay: beta cell apoptosis inhibitors, cytokine rescue, dose response, luminescence, retest (AID 449756); type: functional, cell-based; settings: Rattus norvegicus;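 note: cell death triggered by IL-1 beta plus TNF-alpha plus IFN-gamma mixture; protective hits raise ATP signal compared with cytokine alone wells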
HEK293 [24] = assay: cells; type: functional, cell-based; settings: Homo sapiens; remark: listed apart in the source
[25] = inhibitors of SNCA 5'UTR-driven translation, confirmation, luminescence, H4 neuroglioblastoma cells, dose confirmation (AID 2454); type: functional, cell-based;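 note: H4 neuroglioblastoma cells carrying an alpha-synuclein 5'UTR luciferase reporter; potency for inhibition of the luciferase signal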
[26] = inhibitors of intracellular T. cruzi replication, confirmation, NIH3T3 host cells, beta-gal luminescence (AID 2044); type: functional, cell-based;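 note: intracellular parasites grown in NIH/3T3 mouse fibroblasts as host cells; luminescent beta-galactosidase reporter signal from transgenic T. cruzi replicating inside host cells; inhibitors lower the luminescence signal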
cells [27] = type: functional, cell-based
[28] = luciferase reporter signal reduction – luminescence, H4-C neuroglioblastoma cells, dose response (AID 2458); type: functional, cell-based;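 note: H4 neuroglioblastoma cells stably carrying a luciferase reporter gene fusion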
cells [29] = assay: cells
[30] = cytotoxicity toward NIH3T3 fibroblasts, dose response, counter-screen, cell-based, ATP luminescence, mouse fibroblasts (AID 2010); type: functional;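 note: cells exposed to compound for about 90 hours before reading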
[31] = Luminescence Cell-Based Dose Retest to Confirm Inhibitors of Cancer Stem Cells. [Related pubchem assays (depositor defined):AID2717, AID2721]; type: functional, Homo sapiens; settings: Homo sapiens
[32] = HepG2 cell cytotoxicity, dose response, cytotoxicity control for Shn3 inhibitor project, CellTiter-Glo, cherry-picked (AID 624134); type: functional, cell-based
[33] = Shn3 3'UTR reporter inhibitors, dose response, cell-based, Clone20 osteoblasts, firefly luciferase, cherry-picked (AID 624132); type: functional;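 note: firefly luciferase luminescence from reporter carrying the Shn3 3'UTR in osteoblasts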
[34] = control 3'UTR Renilla luciferase suppression, dose response, counter-screen for Shn3 inhibitor project, cell-based, Clone20-Shn3RL, cherry-picked (AID 624133); type: functional

Nucleotide-binding oligomerization domain-containing protein 2, sequence (Q9HC29 whole entry, the tested form may be a part): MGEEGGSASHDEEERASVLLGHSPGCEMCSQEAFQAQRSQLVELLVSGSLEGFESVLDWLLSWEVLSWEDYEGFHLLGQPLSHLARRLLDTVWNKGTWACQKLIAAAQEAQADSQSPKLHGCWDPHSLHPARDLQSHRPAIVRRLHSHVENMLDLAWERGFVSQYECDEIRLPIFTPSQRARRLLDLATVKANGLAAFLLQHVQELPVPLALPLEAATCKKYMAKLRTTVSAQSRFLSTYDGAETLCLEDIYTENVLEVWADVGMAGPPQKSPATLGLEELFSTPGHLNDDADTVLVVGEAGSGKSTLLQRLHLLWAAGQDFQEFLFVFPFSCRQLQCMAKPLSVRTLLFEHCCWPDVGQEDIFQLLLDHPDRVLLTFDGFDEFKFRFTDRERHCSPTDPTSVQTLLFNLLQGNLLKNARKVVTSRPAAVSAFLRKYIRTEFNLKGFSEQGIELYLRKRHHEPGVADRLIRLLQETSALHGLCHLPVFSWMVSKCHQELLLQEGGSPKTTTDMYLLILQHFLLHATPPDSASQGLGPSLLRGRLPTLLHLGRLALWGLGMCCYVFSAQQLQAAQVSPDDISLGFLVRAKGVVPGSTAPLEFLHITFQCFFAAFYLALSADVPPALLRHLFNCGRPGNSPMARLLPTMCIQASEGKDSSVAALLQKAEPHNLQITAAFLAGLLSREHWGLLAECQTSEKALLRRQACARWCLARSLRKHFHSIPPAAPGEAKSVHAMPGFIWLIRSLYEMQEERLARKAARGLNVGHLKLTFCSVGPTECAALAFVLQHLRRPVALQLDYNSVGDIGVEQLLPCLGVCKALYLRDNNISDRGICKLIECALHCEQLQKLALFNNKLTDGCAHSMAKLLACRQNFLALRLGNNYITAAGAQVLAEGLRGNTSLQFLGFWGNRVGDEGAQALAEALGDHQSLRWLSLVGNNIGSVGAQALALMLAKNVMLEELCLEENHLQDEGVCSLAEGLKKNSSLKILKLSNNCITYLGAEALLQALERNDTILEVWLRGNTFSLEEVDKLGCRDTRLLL
Paired box protein Pax-8, sequence (Q06710 whole entry): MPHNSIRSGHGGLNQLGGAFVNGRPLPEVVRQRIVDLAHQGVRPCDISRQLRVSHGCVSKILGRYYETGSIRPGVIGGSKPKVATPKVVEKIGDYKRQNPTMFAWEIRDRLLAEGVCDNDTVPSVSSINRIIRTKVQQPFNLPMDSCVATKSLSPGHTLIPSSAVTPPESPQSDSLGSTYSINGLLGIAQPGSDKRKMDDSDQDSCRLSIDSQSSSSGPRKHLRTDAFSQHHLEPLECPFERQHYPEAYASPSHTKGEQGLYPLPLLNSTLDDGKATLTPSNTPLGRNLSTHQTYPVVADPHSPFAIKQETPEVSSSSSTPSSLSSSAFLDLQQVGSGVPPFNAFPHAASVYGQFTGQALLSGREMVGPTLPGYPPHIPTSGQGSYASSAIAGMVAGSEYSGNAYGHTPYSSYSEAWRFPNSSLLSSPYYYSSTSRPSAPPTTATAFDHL
Peroxisome proliferator-activated receptor gamma/Nuclear receptor coactivator 3, sequence (P37231 whole entry, the tested form may be a part): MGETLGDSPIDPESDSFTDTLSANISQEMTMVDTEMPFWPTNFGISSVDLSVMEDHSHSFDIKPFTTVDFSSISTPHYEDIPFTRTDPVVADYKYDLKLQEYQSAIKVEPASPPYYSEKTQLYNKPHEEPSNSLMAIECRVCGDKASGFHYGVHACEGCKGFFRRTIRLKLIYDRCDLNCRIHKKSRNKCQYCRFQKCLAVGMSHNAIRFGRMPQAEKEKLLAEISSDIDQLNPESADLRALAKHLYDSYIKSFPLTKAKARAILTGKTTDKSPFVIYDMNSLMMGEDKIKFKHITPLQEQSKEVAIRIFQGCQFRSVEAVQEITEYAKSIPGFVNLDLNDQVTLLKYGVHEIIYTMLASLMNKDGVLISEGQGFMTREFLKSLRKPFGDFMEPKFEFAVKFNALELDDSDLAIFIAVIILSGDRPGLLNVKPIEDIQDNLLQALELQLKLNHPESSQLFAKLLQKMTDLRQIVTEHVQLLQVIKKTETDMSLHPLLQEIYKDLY
Peroxisome proliferator-activated receptor gamma/Nuclear receptor coactivator 3, sequence (Q9Y6Q9 whole entry, further chain, the tested form may be a part): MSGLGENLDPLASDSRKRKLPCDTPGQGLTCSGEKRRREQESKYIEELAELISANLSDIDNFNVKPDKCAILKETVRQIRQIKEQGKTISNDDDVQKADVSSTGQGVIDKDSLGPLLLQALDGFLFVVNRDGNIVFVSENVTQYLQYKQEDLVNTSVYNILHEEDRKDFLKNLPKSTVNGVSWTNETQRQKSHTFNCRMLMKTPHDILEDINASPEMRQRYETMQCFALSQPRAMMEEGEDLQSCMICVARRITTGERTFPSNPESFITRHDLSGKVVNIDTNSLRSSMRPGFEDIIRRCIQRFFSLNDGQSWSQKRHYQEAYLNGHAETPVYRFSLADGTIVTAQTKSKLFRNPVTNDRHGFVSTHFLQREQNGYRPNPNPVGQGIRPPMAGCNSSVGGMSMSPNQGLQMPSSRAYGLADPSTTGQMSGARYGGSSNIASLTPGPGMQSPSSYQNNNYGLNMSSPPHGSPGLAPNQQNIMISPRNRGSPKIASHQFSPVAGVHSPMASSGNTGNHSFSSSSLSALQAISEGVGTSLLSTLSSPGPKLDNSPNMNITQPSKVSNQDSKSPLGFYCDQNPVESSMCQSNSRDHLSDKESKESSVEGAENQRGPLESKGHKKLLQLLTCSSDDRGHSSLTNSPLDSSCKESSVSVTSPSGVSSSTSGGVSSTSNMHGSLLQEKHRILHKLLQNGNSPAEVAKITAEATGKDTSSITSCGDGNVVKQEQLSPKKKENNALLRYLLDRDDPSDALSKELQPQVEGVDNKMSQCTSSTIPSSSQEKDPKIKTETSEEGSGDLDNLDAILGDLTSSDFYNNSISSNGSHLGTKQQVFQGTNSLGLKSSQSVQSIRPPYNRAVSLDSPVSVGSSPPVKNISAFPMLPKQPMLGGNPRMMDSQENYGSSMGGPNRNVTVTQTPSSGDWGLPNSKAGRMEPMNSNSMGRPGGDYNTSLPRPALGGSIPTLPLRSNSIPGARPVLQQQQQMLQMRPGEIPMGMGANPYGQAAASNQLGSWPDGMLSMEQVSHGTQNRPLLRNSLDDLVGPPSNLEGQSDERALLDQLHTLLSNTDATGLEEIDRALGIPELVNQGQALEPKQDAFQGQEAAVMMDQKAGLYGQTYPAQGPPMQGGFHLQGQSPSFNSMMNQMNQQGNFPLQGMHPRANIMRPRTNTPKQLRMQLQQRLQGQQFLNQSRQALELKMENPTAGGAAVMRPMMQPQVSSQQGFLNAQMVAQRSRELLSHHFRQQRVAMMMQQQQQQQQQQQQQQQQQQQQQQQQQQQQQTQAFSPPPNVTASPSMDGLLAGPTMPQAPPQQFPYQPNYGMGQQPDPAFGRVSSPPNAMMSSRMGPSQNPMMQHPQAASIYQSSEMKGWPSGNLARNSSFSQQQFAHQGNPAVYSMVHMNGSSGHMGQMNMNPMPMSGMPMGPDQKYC

Cn1cccc1Cc1nnc(SCC(=O)NCc2ccccc2Cl)n1-c1ccc(F)cc1
EC50 [1]: > 120 µM (not active)

CC/C(=C/c1sc2ccc(C)cc2[n+]1CCO)SC
AC50 [2]: > 380 µM (inactive) | EC50 (Protein RecA): 14.2 µM (active) | EC50 [3]: > 100 µM (not active)

Cc1ccc2[nH]c(SCC(=O)Nc3ccc4c(c3)CCC4)nc2c1
IC50 [4]: > 100 µM (active)

COc1ccc(CCNc2nnc(Sc3nnnn3-c3ccccc3)s2)cc1OC
EC50 [5]: 2.38 µM (active) | EC50 (BJ [6]): 2.35 µM (inconclusive) | EC50 (BJ [7]): 2.95 µM (active) | EC50 [8]: 10.8 µM (active) | IC50 [9]: 2.49 µM (active) | EC50 [10]: 5.09 µM (active) | EC50 [11]: 5.51 µM (active) | AC50 (Paired box protein Pax-8): 4.21 µM (active) | EC50 (BJ [12]): 616 nM (active) | EC50 (BJ [13]): 3.24 µM (active) | IC50 [14]: > 80 µM (inactive)

COc1ccc2nc(C)cc(SCC(=O)Nc3c(C)cc(C)cc3C)c2c1
EC50 [15]: 27.8 µM (not active) | EC50 [3]: > 100 µM (not active) | EC50 [16]: 55.2 µM (not active) | EC50 [17]: > 79.4 µM (not active)

O=C(NC(=S)Nc1ccc(NC(=O)c2ccco2)cc1)c1ccccc1
EC50 [1]: > 120 µM (not active)

Cc1nc2ccc(NC(=O)c3cc(S(=O)(=O)N(C)c4ccccc4)ccc3Cl)cc2s1
AC50 [18]: 2.17 µM (active) | IC50 (HEK293 [19]): 5.43 µM (active) | IC50 (Galanin receptor type 2): > 42 µM (not active) | IC50 (HEK293 [20]): 3.91 µM (inactive) | IC50 (HEK293 [21]): > 20 µM (inactive) | EC50 [22]: > 20 µM (inactive) | EC50 (HEK293 [23]): 2.55 µM (active) | AC50 (INS1): 1.72 µM (active) | IC50 (HEK293 [24]): > 20 µM (inactive)

O=C(O)C1CCCCC1C(=O)Nc1ccccc1Nc1ccccc1 (stereo not drawn)
IC50 [4]: > 100 µM (active)

CC(=O)O[C@H]1C(=O)[C@@]2(C)C([C@H](OC(=O)c3ccccc3)[C@]3(O)C[C@H](OC(=O)[C@H](O)[C@@H](NC(=O)c4ccccc4)c4ccccc4)C(C)=C1C3(C)C)[C@]1(OC(C)=O)CO[C@@H]1C[C@H]2O (stereo partly drawn)
EC50 [25]: 279 nM (active) | EC50 [26]: < 100 nM (active) | IC50 [9]: 0.0719 µM (active) | EC50 [10]: < 0.1 µM (active) | EC50 (cells [27]): 222 nM (active) | EC50 [11]: < 0.1 µM (active) | IC50 [14]: > 80 µM (inactive) | EC50 [28]: 268 nM (active) | EC50 (cells [29]): < 4 nM (active)

Cc1cc(Nc2cccc(Cl)c2)nc(NCc2ccccc2)n1
IC50 (Galanin receptor type 2): > 42 µM (not active) | EC50 [26]: 177 nM (active) | EC50 [30]: > 60 µM (inconclusive) | AC50 [31]: 5.51 µM (active) | AC50 [32]: 53 µM (active) | AC50 [33]: 1.64 µM (active) | AC50 [34]: 6.41 µM (active) | AC50 (INS1): 3.21 µM (active)
